Consider twelve compounds from ChEMBL document CHEMBL1201862, “PubChem BioAssay data set” (2004).

Among the test systems are SNB-19; MDA-N; EKVX; NCI-H23; OVCAR-3; ACHN; U-251; NCI-H460; RXF 393; T47D; TK-10; A498; 786-0; CCRF-CEM; Malme-3M; HCT-15; SNB-75; SK-OV-3; HOP-92.
Holding throughout (assay): NCI-60 cell line screen, 48 h

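Growth conditions: 96-well plates. Treatment: test compound, 48 hours, 5 concentrations. Analysis: linear interpolation between bracketing concentrations; unreached endpoints set to highest concentration. Abbreviation: GI50, concentration required for 50% inhibition of growth.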 Calls of active or inactive are those of the source. Rule as the data show it: active = GI50 up to about 1.1 µM and inactive = higher.

Turning to `CCOC(=O)c1c(NC(=O)c2ccc(Br)cc2)sc2c1CCCC2`, the GI50 in the test with SNB-19, with MDA-N, with EKVX, in the test on NCI-H23, in the test with OVCAR-3 and in the test with ACHN was > 100 µM (inactive) each time. For the same compound, the GI50 is > 100 µM (inactive) in the test with U-251; 0.182 µM (active) in the test with NCI-H460; > 100 µM (inactive) with RXF 393; > 100 µM (inactive) with T47D; > 100 µM (inactive) with TK-10; 25.1 µM (inactive) with A498. Besides, the GI50 with 786-0 and in the test on CCRF-CEM was > 100 µM (inactive) throughout.

In the case of `O=C1C(NCCc2cc(Cl)c(O)c(Cl)c2)=CC(=O)c2[nH]cnc21`, the GI50 in the test with SNB-19 was 33.7 µM (inactive); with MDA-N, 19.6 µM (inactive); in the test with EKVX, 32.1 µM (inactive); in the test on NCI-H23 it was 17.9 µM (inactive); with OVCAR-3 it was 17.7 µM (inactive); in the test with ACHN, 47 µM (inactive). The GI50 in the test on U-251 was 39.7 µM (inactive); with NCI-H460, 26.5 µM (inactive); in the test on Malme-3M, 4.57 µM (inactive); in the test with T47D, 21.7 µM (inactive); with TK-10, 51.8 µM (inactive); in the test on A498, 75.7 µM (inactive). Further, the GI50 in the test on HCT-15 was 39.1 µM; in the test with 786-0 it was 55.5 µM (inactive).

As to `CC(=O)/C=C(/C=N/O)c1ccccc1`, the GI50 in the test with SNB-19, in the test on MDA-N, in the test with EKVX, with NCI-H23, with OVCAR-3 and in the test on ACHN was > 100 µM (inactive) in each case. The GI50 in the test with U-251 is > 100 µM (inactive); in the test with NCI-H460, > 100 µM (inactive); with Malme-3M, > 100 µM (inactive); in the test with SNB-75 it was 56 µM (inactive); in the test on T47D it was > 100 µM (inactive); with SK-OV-3, > 100 µM (inactive). The GI50 in the test on TK-10 is > 100 µM (inactive); in the test on HCT-15, 64.3 µM; in the test with 786-0, > 100 µM (inactive); in the test on CCRF-CEM, > 100 µM (inactive).

Take `CCCC(=O)Nc1ccc2c(c1)CN1C(=O)c3ccccc3C1=N2`: the GI50 in the test on SNB-19, in the test on MDA-N, in the test with NCI-H23, in the test on OVCAR-3, with ACHN and in the test on U-251 was > 100 µM (inactive) each time. Moreover, the GI50 in the test with NCI-H460 was > 100 µM (inactive); with Malme-3M, > 100 µM (inactive); in the test on SNB-75, 49.5 µM (inactive); with T47D, > 100 µM (inactive); with SK-OV-3, > 100 µM (inactive); with HOP-92 it was > 100 µM (inactive). Moreover, the GI50 in the test with TK-10 is > 100 µM (inactive); in the test on HCT-15, above 100 µM; in the test on 786-0, > 100 µM (inactive).

Consider `Cc1ccc(S(=O)(=O)c2ccsc2NC(=O)C(F)(F)F)cc1`, for which the GI50 was 65 µM (inactive) in the test on SNB-19; 23.6 µM (inactive) in the test on MDA-N; 46.6 µM (inactive) in the test on EKVX; 34.5 µM (inactive) in the test with NCI-H23; 42.6 µM (inactive) in the test with OVCAR-3; 39.2 µM (inactive) in the test on ACHN. For the same compound, the GI50 with U-251 is 70.8 µM (inactive); in the test with NCI-H460 it was 27.3 µM (inactive); with Malme-3M, 40.7 µM (inactive); in the test on SNB-75, 24.9 µM (inactive); in the test on T47D, 39.3 µM (inactive); in the test with SK-OV-3, 36.8 µM (inactive). Also, the GI50 is 30.9 µM (inactive) with HOP-92; 61.1 µM (inactive) in the test with TK-10; 53 µM (inactive) in the test with A498; 34.9 µM with HCT-15; 37.6 µM (inactive) with 786-0.

Consider `COc1ccc2nc3ccc(OC)cc3c(SCC3CO3)c2c1` (stereo not given), for which the GI50 was 24.6 µM (inactive) with SNB-19; 15.8 µM (inactive) in the test on MDA-N; 13.3 µM (inactive) in the test on EKVX; 17.2 µM (inactive) with NCI-H23; 14.9 µM (inactive) with OVCAR-3; 8.71 µM (inactive) with ACHN. Further, the GI50 is 12.7 µM (inactive) in the test with U-251; 12 µM (inactive) with NCI-H460; 15.8 µM (inactive) in the test with RXF 393; 14.1 µM (inactive) in the test with Malme-3M; 37.2 µM (inactive) in the test with SNB-75; 16.8 µM (inactive) with T47D. Further, the GI50 in the test with SK-OV-3 was 71.3 µM (inactive); in the test with TK-10, 12.8 µM (inactive); in the test on A498, 25.8 µM (inactive); in the test on HCT-15, 15.6 µM; in the test with 786-0, 11.1 µM (inactive); with CCRF-CEM it was 6.85 µM (inactive).

As to `CN1CCC/C1=C1/C(=O)N(c2ccccc2)N=C1c1ccc[nH]1`, the GI50 with SNB-19, in the test on MDA-N, in the test on EKVX, with NCI-H23, with OVCAR-3 and in the test with ACHN was > 100 µM (inactive) throughout. Moreover, the GI50 in the test with U-251, with NCI-H460, with RXF 393, with Malme-3M, in the test with SNB-75 and with T47D was > 100 µM (inactive) in each case. Besides, the GI50 with TK-10 is > 100 µM (inactive); in the test with A498, > 100 µM (inactive); with HCT-15, above 100 µM; in the test on 786-0, > 100 µM (inactive); in the test with CCRF-CEM, > 100 µM (inactive).

As for `Cc1cc2c3ccccc3[nH]c2c2ccnc(C)c12`, the GI50 in the test on SNB-19 was 18.6 µM (inactive); in the test with MDA-N, 1.71 µM (inactive); in the test on EKVX, 1.49 µM (inactive); with NCI-H23, 12.5 µM (inactive); in the test with OVCAR-3, 10.3 µM (inactive); with ACHN, 15.7 µM (inactive). The GI50 with U-251 was 2.24 µM (inactive); in the test on NCI-H460, 2.35 µM (inactive); in the test with Malme-3M, 13.5 µM (inactive); in the test with SNB-75 it was 7.28 µM (inactive); in the test with T47D, 16.7 µM (inactive); with SK-OV-3, 14.2 µM (inactive). Besides, the GI50 in the test with HOP-92 was 5.11 µM (inactive); with TK-10, 14.2 µM (inactive); in the test on HCT-15, 2.34 µM; in the test with 786-0, 1.65 µM (inactive); with CCRF-CEM, 2.29 µM (inactive).

For the compound `CCC(C)(C)c1ccc(OCCCCNC(=O)c2ccc3ccccc3c2O)c(C(C)(C)CC)c1`, the GI50 in the test on SNB-19 was 55.2 µM (inactive); with MDA-N it was 35.6 µM (inactive); in the test with EKVX it was 21.8 µM (inactive); with NCI-H23, 23.7 µM (inactive); in the test with OVCAR-3 it was 19.4 µM (inactive); in the test with ACHN, 16 µM (inactive). Moreover, the GI50 in the test with U-251 was 43 µM (inactive); in the test with NCI-H460, 23.1 µM (inactive); in the test with Malme-3M, 11 µM (inactive); in the test on SNB-75, 29.8 µM (inactive); with T47D it was 31 µM (inactive); in the test on SK-OV-3, 74 µM (inactive). Also, the GI50 with TK-10 is 13.4 µM (inactive); in the test on A498 it was 29.7 µM (inactive); with HCT-15, 0.425 µM; with 786-0, 15.1 µM (inactive); with CCRF-CEM, 9.68 µM (inactive).

On to `O=C(O)Cn1ccc(=O)c2cc([N+](=O)[O-])ccc21`, for which the GI50 with SNB-19, in the test with MDA-N, in the test on NCI-H23, in the test on OVCAR-3, in the test with ACHN and with U-251 was > 100 µM (inactive) each time. The GI50 was > 100 µM (inactive) in the test with NCI-H460; > 100 µM (inactive) in the test with Malme-3M; > 100 µM (inactive) in the test on SNB-75; 33.1 µM (inactive) in the test with T47D; > 100 µM (inactive) in the test with SK-OV-3; > 100 µM (inactive) with TK-10. The GI50 with A498 was > 100 µM (inactive); in the test with HCT-15 it was above 100 µM; with 786-0, > 100 µM (inactive); in the test with CCRF-CEM it was > 100 µM (inactive).

Regarding `Cc1csc2c1-n1cccc1C2=O`, the GI50 in the test on SNB-19 is > 100 µM (inactive); in the test with MDA-N, 99.1 µM (inactive); in the test on EKVX it was 64.3 µM (inactive); in the test with OVCAR-3, > 100 µM (inactive); in the test with ACHN, > 100 µM (inactive); in the test on U-251, > 100 µM (inactive). The GI50 in the test with NCI-H460 was > 100 µM (inactive); in the test with RXF 393, 98.4 µM (inactive); in the test with Malme-3M, > 100 µM (inactive); in the test on SNB-75, > 100 µM (inactive); in the test with T47D it was > 100 µM (inactive); in the test with SK-OV-3, > 100 µM (inactive). Also, the GI50 in the test with TK-10 was > 100 µM (inactive); with A498, 36 µM (inactive); in the test with HCT-15, above 100 µM; with 786-0 it was > 100 µM (inactive); in the test on CCRF-CEM it was > 100 µM (inactive).

Take `Nc1nc(Cl)cc(Nc2ccc3c(c2)CCC3)n1`: the GI50 in the test on SNB-19 was > 100 µM (inactive); in the test with MDA-N, > 100 µM (inactive); in the test on EKVX, 32.1 µM (inactive); in the test on NCI-H23, > 100 µM (inactive); with OVCAR-3, > 100 µM (inactive); in the test on ACHN it was > 100 µM (inactive). Further, the GI50 was > 100 µM (inactive) in the test on U-251; 55.8 µM (inactive) in the test on NCI-H460; > 100 µM (inactive) with Malme-3M; > 100 µM (inactive) in the test on T47D; > 100 µM (inactive) with SK-OV-3; > 100 µM (inactive) with HOP-92. Also, the GI50 in the test with TK-10 is 65 µM (inactive); in the test on A498 it was > 100 µM (inactive); in the test with HCT-15, 35.9 µM; in the test with 786-0, 52.2 µM (inactive); in the test with CCRF-CEM, 44.3 µM (inactive).
